# The source made the active and inactive calls.
# Tests used:
# HEK293 [1] = assay: NOD1 signaling inhibitors, primary screen, cell-based, luminescence, uHTS (AID 1578); assay type: functional; details: Homo sapiens
# HEK293 [2] = assay: cells; assay type: functional, cell-based; details: Homo sapiens
# [3] = target: T1, Heat shock factor protein 1 (Mus musculus, UniProt P38532); assay: inhibition of MG132-induced HSE-luciferase signal, confirmation, cell-based, NIH3T3, luminescence, dose retest (AID 2382); assay type: functional;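 further: NIH3T3 fibroblasts with HSF1-driven luciferase reporter stressed by proteasome inhibitor MG132; luminescence from HSF1-driven luciferase expression after 8 hours of MG132 stress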
# T1 sequence (P38532 whole entry): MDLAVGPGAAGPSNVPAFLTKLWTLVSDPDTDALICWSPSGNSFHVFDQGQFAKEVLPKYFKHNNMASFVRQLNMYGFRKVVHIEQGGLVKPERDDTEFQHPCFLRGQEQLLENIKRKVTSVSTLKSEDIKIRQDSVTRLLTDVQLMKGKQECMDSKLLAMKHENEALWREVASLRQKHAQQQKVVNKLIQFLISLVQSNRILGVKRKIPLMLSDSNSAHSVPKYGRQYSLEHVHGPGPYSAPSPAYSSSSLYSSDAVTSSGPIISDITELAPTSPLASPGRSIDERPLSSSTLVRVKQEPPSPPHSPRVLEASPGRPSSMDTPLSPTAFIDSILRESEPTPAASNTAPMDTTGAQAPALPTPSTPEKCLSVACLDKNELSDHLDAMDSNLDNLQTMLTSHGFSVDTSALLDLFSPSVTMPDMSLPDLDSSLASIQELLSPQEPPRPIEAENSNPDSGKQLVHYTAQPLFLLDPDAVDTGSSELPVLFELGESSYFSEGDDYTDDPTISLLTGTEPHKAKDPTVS
# HEK293 [4] = assay: cells; assay type: functional, cell-based; details: Homo sapiens; remark: listed apart in the source
# [5] = target: Nucleotide-binding oligomerization domain-containing protein 2 (Homo sapiens, UniProt Q9HC29); assay: NOD2 signaling inhibitors, cell-based, luminescence, uHTS, HEK293 (AID 1566); assay type: functional
# HEK293 [6] = assay: NOD2 signaling inhibitors in MDP-stimulated cells, cell-based, uHTS, luminescence (AID 2001); assay type: functional; details: Homo sapiens
# HEK293 [7] = assay: cells; assay type: functional, cell-based; details: Homo sapiens; remark: listed apart in the source
# Tumor necrosis factor = Tumor necrosis factor (Homo sapiens, UniProt P01375); assay: TNFa-triggered NF-kB activation inhibitors, SAR follow-up, cell-based, revised (AID 2337); assay type: functional
# [8] = target: T2, Nucleotide-binding oligomerization domain-containing protein 1 (Homo sapiens, UniProt Q9Y239); assay: NOD1 signaling inhibitors, SAR follow-up, revised (AID 2333); assay type: functional
# T2 sequence (Q9Y239 whole entry): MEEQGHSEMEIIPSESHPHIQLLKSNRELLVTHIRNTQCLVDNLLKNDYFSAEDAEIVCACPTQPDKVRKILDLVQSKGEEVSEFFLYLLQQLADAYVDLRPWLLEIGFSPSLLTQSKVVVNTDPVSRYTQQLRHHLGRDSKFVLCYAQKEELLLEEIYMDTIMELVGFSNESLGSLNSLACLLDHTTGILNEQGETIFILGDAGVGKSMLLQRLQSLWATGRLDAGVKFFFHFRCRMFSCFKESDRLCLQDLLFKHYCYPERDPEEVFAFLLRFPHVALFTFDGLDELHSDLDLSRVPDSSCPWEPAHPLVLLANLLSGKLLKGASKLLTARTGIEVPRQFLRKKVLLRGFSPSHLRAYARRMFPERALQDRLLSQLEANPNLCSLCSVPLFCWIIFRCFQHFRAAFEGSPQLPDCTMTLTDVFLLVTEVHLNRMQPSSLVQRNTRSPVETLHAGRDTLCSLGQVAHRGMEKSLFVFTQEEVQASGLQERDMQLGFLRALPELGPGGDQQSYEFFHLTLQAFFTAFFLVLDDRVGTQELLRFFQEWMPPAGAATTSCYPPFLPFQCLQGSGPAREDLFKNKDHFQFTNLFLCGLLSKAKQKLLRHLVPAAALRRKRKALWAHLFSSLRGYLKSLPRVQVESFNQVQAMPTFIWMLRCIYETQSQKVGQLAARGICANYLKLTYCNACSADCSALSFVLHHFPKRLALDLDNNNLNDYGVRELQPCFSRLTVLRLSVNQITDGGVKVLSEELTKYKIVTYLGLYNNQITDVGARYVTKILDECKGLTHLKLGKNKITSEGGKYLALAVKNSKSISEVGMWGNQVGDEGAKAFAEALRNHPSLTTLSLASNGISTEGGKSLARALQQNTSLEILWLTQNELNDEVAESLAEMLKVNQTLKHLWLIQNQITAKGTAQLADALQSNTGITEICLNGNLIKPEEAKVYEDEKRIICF
# [9] = cytotoxicity in HEK-293T cells, dose response, cytotoxicity control for TCR NF-kB inhibitor project, luminescence, T-cell screen hits (AID 489026); assay type: functional, cell-based;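 further: cells exposed to compound about 14 hours before the viability readout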
# HEK293 [10] = assay: cells; details: Homo sapiens
# [11] = NIH-3T3 fibroblast cytotoxicity, dose response, cytotoxicity control, cell-based, fluorescence, Alamar Blue, secondary assay (AID 2327); assay type: functional;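 further: NIH-3T3 mouse fibroblasts cultured with fluconazole at 8 µg/mL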
# [12] = C. albicans growth with fluconazole, confirmation, fluorescence, retest (AID 2467); assay type: functional, cell-based
# [13] = target: T3, Serine/threonine-protein phosphatase (Candida dubliniensis (strain CD36 / CBS 7987 / NCPF 3949 / NRRLY-17841) (Yeast), UniProt B9W6M3); assay: calcineurin pathway inhibitors in yeast reporter, dose response, S. cerevisiae, CDRE-lacZ, luminescence, secondary (AID 2388); assay type: functional, cell-based;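 further: yeast reporter cells carrying a calcineurin-responsive lacZ construct stimulated with calcium chloride; luminescent beta-galactosidase reporter signal in whole cells rather than isolated phosphatase activity; potency for inhibition where a drop in reporter signal means calcineurin blockade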
# T3 sequence (B9W6M3 whole entry): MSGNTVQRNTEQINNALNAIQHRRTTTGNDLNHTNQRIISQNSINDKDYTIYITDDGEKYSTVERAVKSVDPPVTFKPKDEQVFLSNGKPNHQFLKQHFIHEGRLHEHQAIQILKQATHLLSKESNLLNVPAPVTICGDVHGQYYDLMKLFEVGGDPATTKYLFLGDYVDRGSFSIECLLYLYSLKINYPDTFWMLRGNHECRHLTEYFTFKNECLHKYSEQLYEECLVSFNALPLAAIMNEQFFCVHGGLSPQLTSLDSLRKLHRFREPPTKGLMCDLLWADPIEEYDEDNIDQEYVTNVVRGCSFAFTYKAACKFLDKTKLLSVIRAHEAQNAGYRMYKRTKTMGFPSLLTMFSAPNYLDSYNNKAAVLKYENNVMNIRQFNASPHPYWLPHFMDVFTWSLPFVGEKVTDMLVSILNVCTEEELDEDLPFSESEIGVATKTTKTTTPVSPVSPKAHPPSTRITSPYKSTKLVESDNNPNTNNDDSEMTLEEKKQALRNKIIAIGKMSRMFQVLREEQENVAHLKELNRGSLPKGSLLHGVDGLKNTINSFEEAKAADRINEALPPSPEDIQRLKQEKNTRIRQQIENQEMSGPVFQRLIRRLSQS
# INS1 = assay: beta cell apoptosis inhibitors, cytokine rescue, dose response, luminescence, retest (AID 449756); assay type: functional, cell-based; details: Rattus norvegicus;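 further: cell death triggered by IL-1 beta plus TNF-alpha plus IFN-gamma mixture; protective hits raise ATP signal compared with cytokine alone wells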
# [14] = target: ATP-dependent molecular chaperone HSP82 (Candida albicans (strain WO-1) (Yeast), UniProt C4YTQ8); assay: loss of DOC-induced GRE-beta-galactosidase reporter signal, dose response, Hsp90 inhibitor project, S. cerevisiae, luminescence (AID 2400); assay type: functional, cell-based;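 further: beta-galactosidase luminescence from glucocorticoid response element reporter as proxy for Hsp90 function; inhibitor potency where signal loss means Hsp90 inhibition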
# [15] = target: T4, COUP transcription factor 2 (Homo sapiens, UniProt P24468); assay: Luminescence-based cell-based high throughput dose response assay to identify inhibitors of COUP-TFII (NR2F2).; assay type: functional;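 further: HEK293 cells transiently cotransfected with COUP-TFII expression vector and reporter; luciferase reporter luminescence driven by COUP-TFII from the pX2-168 reporter plasmid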
# T4 sequence (P24468 whole entry): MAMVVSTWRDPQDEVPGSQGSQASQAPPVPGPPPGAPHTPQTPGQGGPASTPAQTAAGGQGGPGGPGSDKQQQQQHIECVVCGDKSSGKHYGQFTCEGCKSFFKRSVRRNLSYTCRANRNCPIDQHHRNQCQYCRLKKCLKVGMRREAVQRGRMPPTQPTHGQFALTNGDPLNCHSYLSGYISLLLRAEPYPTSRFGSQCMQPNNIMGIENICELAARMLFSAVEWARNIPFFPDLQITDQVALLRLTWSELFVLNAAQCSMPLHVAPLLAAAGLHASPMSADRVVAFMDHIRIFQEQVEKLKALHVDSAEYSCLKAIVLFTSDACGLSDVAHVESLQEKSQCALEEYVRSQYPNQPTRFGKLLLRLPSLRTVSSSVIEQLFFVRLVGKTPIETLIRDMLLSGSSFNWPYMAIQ
# [16] = inhibitors of intracellular T. cruzi replication, confirmation, NIH3T3 host cells, beta-gal luminescence (AID 2044); assay type: functional, cell-based;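 further: intracellular parasites grown in NIH/3T3 mouse fibroblasts as host cells; luminescent beta-galactosidase reporter signal from transgenic T. cruzi replicating inside host cells; inhibitors lower the luminescence signal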
# [17] = cytotoxicity toward NIH3T3 fibroblasts, dose response, counter-screen, cell-based, ATP luminescence, mouse fibroblasts (AID 2010); assay type: functional;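 further: cells exposed to compound for about 90 hours before reading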
# [18] = target: T5, Microphthalmia-associated transcription factor (Homo sapiens, UniProt O75030); assay: TRPM1 promoter luciferase signal decrease, dose response, MITF inhibitor project, cell-based, SK-MEL-5, cherry-picked, set 3 (AID 493073); assay type: functional
# T5 sequence (O75030 whole entry): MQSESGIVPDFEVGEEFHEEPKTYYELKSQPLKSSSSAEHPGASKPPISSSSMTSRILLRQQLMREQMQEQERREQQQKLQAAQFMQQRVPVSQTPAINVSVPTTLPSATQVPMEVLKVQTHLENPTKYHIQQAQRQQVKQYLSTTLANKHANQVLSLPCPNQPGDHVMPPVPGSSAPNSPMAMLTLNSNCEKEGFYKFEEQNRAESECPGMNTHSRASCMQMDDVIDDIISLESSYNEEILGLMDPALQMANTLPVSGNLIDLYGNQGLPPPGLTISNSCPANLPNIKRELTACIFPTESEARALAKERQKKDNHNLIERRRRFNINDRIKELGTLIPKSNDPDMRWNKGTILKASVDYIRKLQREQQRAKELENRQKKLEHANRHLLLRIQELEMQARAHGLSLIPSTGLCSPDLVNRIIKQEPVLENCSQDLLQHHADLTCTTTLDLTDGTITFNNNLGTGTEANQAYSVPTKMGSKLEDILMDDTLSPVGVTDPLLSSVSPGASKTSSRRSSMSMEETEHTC
# [19] = target: T6, DNA repair protein RAD52 homolog (Homo sapiens, UniProt P43351); assay type: functional, biochemical
# T6 sequence (P43351 whole entry): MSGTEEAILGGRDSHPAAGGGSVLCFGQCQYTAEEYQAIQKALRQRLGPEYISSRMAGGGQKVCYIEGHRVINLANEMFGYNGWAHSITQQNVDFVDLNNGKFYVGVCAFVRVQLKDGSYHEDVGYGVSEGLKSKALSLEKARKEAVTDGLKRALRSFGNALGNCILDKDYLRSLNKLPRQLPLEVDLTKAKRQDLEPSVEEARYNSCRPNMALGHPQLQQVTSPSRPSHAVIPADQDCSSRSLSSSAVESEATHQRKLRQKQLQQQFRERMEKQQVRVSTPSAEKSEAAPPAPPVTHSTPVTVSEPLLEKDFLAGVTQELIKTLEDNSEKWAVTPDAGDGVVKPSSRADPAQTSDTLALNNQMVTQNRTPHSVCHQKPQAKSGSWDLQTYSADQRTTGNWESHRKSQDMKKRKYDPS
# [20] = target: T7, High affinity choline transporter 1 (Homo sapiens, UniProt Q9GZV3); assay: CHT inhibitors, dose response, cell-based, 5-point CRC, membrane potential dye (AID 504840); assay type: functional
# T7 sequence (Q9GZV3 whole entry): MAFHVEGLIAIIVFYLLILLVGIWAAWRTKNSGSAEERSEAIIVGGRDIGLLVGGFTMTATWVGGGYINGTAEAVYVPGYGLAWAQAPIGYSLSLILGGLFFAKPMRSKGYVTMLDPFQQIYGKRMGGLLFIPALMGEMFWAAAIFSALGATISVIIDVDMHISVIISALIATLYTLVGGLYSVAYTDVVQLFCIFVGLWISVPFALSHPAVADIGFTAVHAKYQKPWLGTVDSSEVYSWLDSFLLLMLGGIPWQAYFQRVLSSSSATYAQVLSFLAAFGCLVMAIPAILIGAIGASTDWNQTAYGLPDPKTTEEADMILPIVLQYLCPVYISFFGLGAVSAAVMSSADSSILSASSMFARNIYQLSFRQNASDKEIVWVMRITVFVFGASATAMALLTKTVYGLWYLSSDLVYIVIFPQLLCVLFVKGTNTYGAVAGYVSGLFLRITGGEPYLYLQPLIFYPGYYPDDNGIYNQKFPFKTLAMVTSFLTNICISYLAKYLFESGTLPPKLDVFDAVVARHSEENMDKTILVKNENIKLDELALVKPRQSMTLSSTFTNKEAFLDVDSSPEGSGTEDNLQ
# Escherichia coli = assay: microbe, parasite or virus in culture
# Chain of Tumor necrosis factor (P01375 whole entry, the tested form may be a part): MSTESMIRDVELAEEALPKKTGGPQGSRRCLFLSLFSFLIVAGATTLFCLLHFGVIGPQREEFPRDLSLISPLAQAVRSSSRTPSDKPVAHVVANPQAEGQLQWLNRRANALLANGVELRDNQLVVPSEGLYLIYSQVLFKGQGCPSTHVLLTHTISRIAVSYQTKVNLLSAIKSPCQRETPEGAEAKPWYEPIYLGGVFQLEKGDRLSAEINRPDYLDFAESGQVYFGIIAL
# Chain of ATP-dependent molecular chaperone HSP82 (C4YTQ8 whole entry): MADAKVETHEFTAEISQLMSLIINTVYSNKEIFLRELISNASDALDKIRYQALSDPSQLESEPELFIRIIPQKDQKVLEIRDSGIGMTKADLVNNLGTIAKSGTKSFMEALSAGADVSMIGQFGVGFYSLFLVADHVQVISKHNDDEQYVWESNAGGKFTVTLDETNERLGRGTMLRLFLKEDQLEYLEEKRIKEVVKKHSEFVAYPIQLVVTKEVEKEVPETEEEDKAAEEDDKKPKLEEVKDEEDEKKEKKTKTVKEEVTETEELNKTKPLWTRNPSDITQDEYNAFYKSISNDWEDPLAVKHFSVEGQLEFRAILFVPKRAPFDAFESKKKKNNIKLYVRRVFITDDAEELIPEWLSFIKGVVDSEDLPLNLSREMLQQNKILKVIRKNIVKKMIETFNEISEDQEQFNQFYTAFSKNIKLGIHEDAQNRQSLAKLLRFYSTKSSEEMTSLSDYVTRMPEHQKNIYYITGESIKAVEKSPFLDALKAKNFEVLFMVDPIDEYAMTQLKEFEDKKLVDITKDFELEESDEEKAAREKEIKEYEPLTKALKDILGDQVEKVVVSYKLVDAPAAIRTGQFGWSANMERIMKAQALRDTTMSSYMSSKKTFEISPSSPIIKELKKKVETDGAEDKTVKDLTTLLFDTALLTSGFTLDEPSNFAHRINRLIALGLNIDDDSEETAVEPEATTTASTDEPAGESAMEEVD
# Chain of Nucleotide-binding oligomerization domain-containing protein 2 (Q9HC29 whole entry, the tested form may be a part): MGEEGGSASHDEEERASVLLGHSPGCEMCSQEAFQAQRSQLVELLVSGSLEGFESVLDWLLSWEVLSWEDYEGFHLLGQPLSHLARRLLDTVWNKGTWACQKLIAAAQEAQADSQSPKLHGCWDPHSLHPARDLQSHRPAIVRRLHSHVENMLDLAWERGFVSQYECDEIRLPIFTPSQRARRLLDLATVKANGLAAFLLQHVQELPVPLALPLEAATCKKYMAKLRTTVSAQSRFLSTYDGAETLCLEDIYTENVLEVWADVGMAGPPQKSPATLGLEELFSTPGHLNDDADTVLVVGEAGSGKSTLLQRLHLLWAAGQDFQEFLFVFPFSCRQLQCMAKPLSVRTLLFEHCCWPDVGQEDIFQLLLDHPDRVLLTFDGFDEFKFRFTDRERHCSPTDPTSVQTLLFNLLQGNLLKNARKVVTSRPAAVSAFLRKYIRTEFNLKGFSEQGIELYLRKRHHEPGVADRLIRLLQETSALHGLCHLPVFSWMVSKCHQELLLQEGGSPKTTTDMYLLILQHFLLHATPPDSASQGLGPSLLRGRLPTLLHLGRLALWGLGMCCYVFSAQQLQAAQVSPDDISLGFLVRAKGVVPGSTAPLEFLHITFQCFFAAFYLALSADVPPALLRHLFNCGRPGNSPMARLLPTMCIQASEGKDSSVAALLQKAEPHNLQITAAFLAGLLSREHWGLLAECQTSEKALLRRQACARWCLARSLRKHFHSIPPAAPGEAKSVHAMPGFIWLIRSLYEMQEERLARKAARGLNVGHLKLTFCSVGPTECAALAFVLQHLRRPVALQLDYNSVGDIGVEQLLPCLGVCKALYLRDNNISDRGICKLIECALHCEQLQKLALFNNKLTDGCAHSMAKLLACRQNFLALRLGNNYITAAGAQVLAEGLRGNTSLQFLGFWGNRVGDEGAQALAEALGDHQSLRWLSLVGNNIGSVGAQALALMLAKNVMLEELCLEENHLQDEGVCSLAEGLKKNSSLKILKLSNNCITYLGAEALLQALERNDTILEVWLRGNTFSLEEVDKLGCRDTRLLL
smiles,measurement,setting,value
Cc1ccc2oc(N=C(N)NC(=O)C(C)(C)C)nc2c1,EC50,HEK293 [1],< 0.31 µM (inactive)
same,IC50,HEK293 [2],< 0.312 µM (active)
same,EC50,[3],< 0.16 µM (active)
same,IC50,HEK293 [4],> 20 µM (inactive)
same,EC50,[5],0.01 µM (active)
same,IC50,HEK293 [6],4.71 µM (active)
same,IC50,HEK293 [7],> 20 µM (inactive)
same,IC50,Tumor necrosis factor,< 0.0391 µM (active)
same,IC50,[8],0.0949 µM (active)
same,IC50,[9],> 80 µM (inactive)
same,IC50,HEK293 [10],> 20 µM (inactive)
CCc1cc(C(=O)NC2CCCc3c2cnn3-c2cccc(C)c2C)n(C)n1 (stereo not drawn),EC50,[11],> 150 µM (inactive)
same,EC50,[12],0.142 µM (active)
same,EC50,[13],> 180 µM (inactive)
same,IC50,Tumor necrosis factor,0.179 µM (active)
same,IC50,[8],0.0983 µM (active)
same,IC50,[9],> 80 µM (inactive)
same,AC50,INS1,< 0.195 µM (active)
same,EC50,[14],> 150 µM (inactive)
same,IC50,[15],> 0.117 µM (active)
same,IC50,HEK293 [10],> 20 µM (inactive)
Cc1cc(C)c2nc3nc(C)cc(C)c3c(N)c2c1,EC50,[16],1.5 µM (active)
same,EC50,[17],> 60 µM (not active)
same,AC50,[18],5.72 µM (active)
same,AC50,[19],1.12 µM (active)
CCCn1c2ccccc2c2cnn(CC(=O)NCCCN3CCCC(C)C3)c(=O)c21 (stereo not drawn),IC50,[20],15.1 µM (active)
COc1ccc(C(=O)Nc2cnn(Cc3ccc(Cl)cc3)c2)cc1OC,AC50,Escherichia coli,96.5 µM (active)
Cc1ccc2c(CC(=O)Nc3ccc(N4CCN(C)CC4)cc3C)coc2c1,AC50,Escherichia coli,43.5 µM (active)

# — ChEMBL document CHEMBL1201862, “PubChem BioAssay data set” (2004)
